Tests used:
[1] = target: T1, HIV-1 RT K103N (Human immunodeficiency virus type 1 group M subtype B, UniProt P03366, K702N); assay: Reverse transcriptase (RT) assay, K103N mutant; type: biochemical
T1 construct: an HIV RT clone pKRT2 containing only the RT p66 gene regulated by the lac operon/trc promoter; made in house; host or cells: E. coli JM109, vector pKK233-2
Procedure, shortened: (§1)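 Cell-free assay in which recombinant mutant RT (HIV-1 IIIB clone BH10, made by site-directed mutagenesis) transcribes a radiolabelled DNA strand from a poly r(C) template primed with biotinylated oligo d(G), using 3H-dGTP as substrate. Inhibition is measured as reduced label incorporation, under conditions analogous to the wild-type enzyme assay.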

[2] = test system: HIV coding for mutant reverse transcriptase K103N/L100I; assay: ELISA (p24) assay of HIV replication in C8166 cell culture, K103N/L100I virus; type: cell-based, HIV-1; conditions: Human immunodeficiency virus 1, C8166, 72 h, read-out: EC50 K103N/L100I
Method: (§2) Compounds of the invention were tested for their ability to inhibit HIV replication in cell culture in a 96-well plate assay. Complete RPMI 1640, consisting of RPMI 1640+10% fetal bovine serum, 10 μg/ml gentamycin and 10 μM β-mercaptoethanol was used for dilution of the compound as well as cell growth medium. The T lymphocyte cell line C8166 was infected at a multiplicity of infection of 0.001 with viruses coding for wild-type and mutant reverse transcriptase. Cells were then incubated for three days in the presence of serial dilutions of the compounds of the invention. The supernatant was pooled from eight replica wells and the concentration of extracellular p24 was determined using a commercially available HIV-1 p24 antigen assay kit (Beckman-Coulter®). The level of inhibition (% inhibition) was calculated with the following equation: [formula]

[3] = test system: HIV coding for mutant reverse transcriptase K103N/V108I; assay: ELISA (p24) assay of HIV replication in C8166 cell culture, K103N/V108I virus; type: cell-based, HIV-1; conditions: Human immunodeficiency virus 1, C8166, 72 h, read-out: EC50 K103N/V108I
Method: as §2

[4] = test system: HIV coding for mutant reverse transcriptase Y188L; assay: ELISA (p24) assay of HIV replication in C8166 cell culture, Y188L virus; type: cell-based, HIV-1; conditions: Human immunodeficiency virus 1, C8166, 72 h, read-out: EC50 Y188L
Method: as §2

[5] = target: T2, HIV-1 RT V106A (Human immunodeficiency virus type 1 group M subtype B, UniProt P03366, V705A); assay: Reverse transcriptase (RT) assay, V106A mutant; type: biochemical
T2 construct: an HIV RT clone pKRT2 containing only the RT p66 gene regulated by the lac operon/trc promoter; made in house; host or cells: E. coli JM109, vector pKK233-2
Procedure, shortened: as §1

[6] = target: T3, HIV-1 RT P23L (Human immunodeficiency virus type 1 group M subtype B, UniProt P03366, P835L); assay: Reverse transcriptase (RT) assay, P23L mutant; type: biochemical
T3 construct: an HIV RT clone pKRT2 containing only the RT p66 gene regulated by the lac operon/trc promoter; made in house; host or cells: E. coli JM109, vector pKK233-2
Description: (§3) Among the enzymes for which Human Immunodeficiency Virus (HIV-1) encodes is a reverse transcriptase (1), so-named because it transcribes a DNA copy from an RNA template. This activity can be quantitatively measured in a cell-free enzyme assay and is based upon the observation that reverse transcriptase is able to use a synthetic template poly r(C) primed with a biotinylated oligo d(G) to transcribe a radio-labelled DNA strand utilising 3H-dGTP as a substrate. The assay described below utilises the wild-type enzyme (which is the predominant form of the enzyme observed in patients infected with HIV-1) and can also be used with mutant RT enzymes (for example, Y181C, prepared by site-directed mutagenesis in which the tyrosine residue at codon 181 has been replaced by a cysteine residue) in analogous assay conditions. This assay allows compounds to be evaluated for their effectiveness at inhibiting the mutant enzymes.
(§4) Some HIV-1 IIIB clone BH10 RT mutants were provided by Dr. C.-K. Shih (Boehringer Ingelheim Pharmaceutials Inc., U.S.A.) in the vector pKK233-2 (Pharmacia). Briefly an HIV RT clone pKRT2 containing only the RT p66 gene regulated by the lac operon/trc promoter was obtained from Dr. W. Summers (Yale University) (2). A variety of specific amino acid substitutions were introduced into the wild-type RT gene by site-directed mutagenesis. RT clones were subcloned into the pKK233-2 bacterial expression vector. Clones provided included wild-type, Val106Ala, Tyr181Cys, Tyr188Cys, Tyr188Leu, Gly190Ala and Pro236Leu. Others were made in-house by site-directed mutagenesis of the pKK233-2 RT clones including Lys103Asn, Lys103Asn/Tyr181Cys, Lys103Asn/Leu100Ile, Lys103Asn/Pro225His, and Lys103Asn/Val108Ile.
Purification of recombinant reverse transcriptase was performed using a combination of methods previously described (3). A single colony from a fresh plate of transformed JM109 cells was used to initiate growth of a pre-culture grown o/n at 37° C. Two liters of growth medium were inoculated with this pre-culture. At OD600˜1.5 (5-6 h at 37° C.), RT gene expression was induced with IPTG (1 mM final), and the fermentation was continued for a few more hours at 37° C. After centrifugation, supernatants were discarded while cell pellets were pooled and stored at −80° C. until purification. Cells were thawed at 4° C. overnight and suspended in lysis buffer (MES 50 mM pH 6, EDTA 1 mM, 10% v/v glyerol, 0.02% w/v OBG, 0.02% w/v sodium azide). Lysozyme was added and the mixture was incubated on ice for 40 minutes. After homogenization using a bounce in presence of lysozyme and sonication, the cells were centrifuged for 30 minutes. Supernatant (S1) was saved and stored at 4° C. […]

[7] = test system: HIV coding for mutant reverse transcriptase Y181C; assay: ELISA (p24) assay of HIV replication in C8166 cell culture, Y181C virus; type: cell-based, HIV-1; conditions: Human immunodeficiency virus 1, C8166, 72 h, read-out: EC50 Y181C
Method: as §2

[8] = target: T4, HIV-1 RT Y188L (Human immunodeficiency virus type 1 group M subtype B, UniProt P03366, Y787L); assay: Reverse transcriptase (RT) assay, Y188L mutant; type: biochemical
T4 construct: an HIV RT clone pKRT2 containing only the RT p66 gene regulated by the lac operon/trc promoter; made in house; host or cells: E. coli JM109, vector pKK233-2
Procedure, shortened: as §1

[9] = target: T5, HIV-1 RT Y188C (Human immunodeficiency virus type 1 group M subtype B, UniProt P03366, Y787C); assay: Reverse transcriptase (RT) assay, Y188C mutant; type: biochemical
T5 construct: an HIV RT clone pKRT2 containing only the RT p66 gene regulated by the lac operon/trc promoter; made in house; host or cells: E. coli JM109, vector pKK233-2
Description: as §3, §4
Purification of recombinant reverse transcriptase was performed using a combination of methods previously described (3). A single colony from a fresh plate of transformed JM109 cells was used to initiate growth of a pre-culture grown o/n at 37° C. Two liters of growth medium were inoculated with this pre-culture. At OD600˜1.5 (5-6 h at 37° C.), RT gene expression was induced with IPTG (1 mM final), and the fermentation was continued for a few more hours at 37° C. After centrifugation, supernatants were discarded while cell pellets were pooled and stored at −80° C. until purification. Cells were thawed at 4° C. overnight and suspended in lysis buffer (MES 50 mM pH 6, EDTA 1 mM, 10% v/v glyerol, 0.02% w/v OBG, 0.02% w/v sodium azide). Lysozyme was added and the mixture was incubated on ice for 40 minutes. After homogenization using a bounce in presence of lysozyme and sonication, the cells were centrifuged for 30 minutes. Supernatant (S1) was saved and stored at 4° C. The centrifuged pellet was resuspended in extraction buffer (MES 50 mM pH 6, KPO4 50 mM pH 6, KCl 100 mM, 10% v/v glycerol, 0.02% w/v OBG, 0.02% w/v sodium axide) and stirred for 30 minutes at 4° C. This second mixture was centrifuged again and the supernatant (S2) was saved. The above procedure was repeated 2 more times saving supernatants S3 and S4 and one last extraction was performed overnight (S5). Polymin P (0.005% final) was added to the combined supernatants to remove nucleic acids. This solution was stirred for 75 minutes at 4° C. and centrifuged for 1 h. The supernatant (SS1) was precipitated on ice with 20% w/v ammonium sulfate and stirred for 1 h at 4° C. The mixture was then centrifuged and the resulting supernatant (SS2) was precipitated with additional 40% w/v ammonium sulfate (60% total), stirred for 1 h and centrifuged again. The final pellet (P1) was stored overnight at 4° C. before undergoing purification the following day. All steps of the purification were performed at 4° C. unless otherwise stated.
Pellet (P1) was resuspended into MES 50 mM pH 6, KPO4 10 mM pH 6, KCl 100 mM, 10% v/v glycerol, 0.02% w/v OBG, 0.02% w/v sodium azide. The suspension was dialysis against the same buffer overnight using 12-14 kD MWCO dialysis tubing. […]

Compound	IC50 [1] [nM]	EC50 [2] [nM]	EC50 [3] [nM]	EC50 [4] [nM]	IC50 [5] [nM]	IC50 [6] [nM]	EC50 [7] [nM]	IC50 [8] [nM]	IC50 [9] [nM]
CCN1c2ncc(CCOc3cc[n+]([O-])c4ccccc34)cc2C(=O)N(C)c2cccnc21 [compound 21, 5,11-Dihydro-11-ethyl-5-methyl-8-{2-{(1-oxido-4-quinolinyl)oxy}ethyl}-6H-dipyrido[3,2-b:2′,3′-e][1,4]diazepin-6-one]	44	5.9	5	67	1110	129	4.8	1360	9.9
CCN1c2ncc(CCOc3cc[n+]([O-])c4ccccc34)cc2C(=O)N(C)c2ccc(Cl)nc21 [compound 17, 2-Chloro-5,11-dihydro-11-ethyl-5-methyl-8-{2-{(1-oxido-4-quinolinyl)oxy}-ethyl}-6H-dipyrido[3,2-b:2′,3′-e][1,4]diazepin-6-one]	25	1.2	2.7	58	319	60	2.8	198	8.1
CCN1c2ncc(CCOc3cc[n+]([O-])c4ccccc34)cc2C(=O)N(C)c2ccc(F)nc21 [compound 11, 5,11-Dihydro-11-ethyl-2-fluoro-5-methyl-8-{2-{(1-oxido-4-quinolinyl)oxy}-ethyl}-6H-dipyrido[3,2-b:2′,3′-e][1,4]diazepin-6-one]	18	3.2	3.9	52	336	56	4.1	661	6.6

From patent publication US20020028807A1, “Non-nucleoside reverse transcriptase inhibitors” (priority 2000, published 2002)
